Drawing on patent US8173682B2, “Substituted pyridones as inhibitors of poly(ADP-ribose) polymerase (PARP)” (Aventis Pharmaceuticals Inc., priority 2004, dated 2012), this text covers IC50 for 30 compounds.

The test concerns the target T1, recombinant human PARP (PARP1) (Homo sapiens, UniProt P09874).
T1 construct: Full length human PARP (PARP1) is assembled from PCR fragments; His6 tag with TEV site, from the pFastBac-HTb vector (own knowledge of the vector); made in house; host or cells: insect cells, baculovirus (Bac-to-Bac, Gibco-BRL)
Briefly: PARP enzyme assay, Method A (radioactivity or 'ELISA' enzyme assay with partially purified enzyme). Type of test: biochemical. To be noted: recombinant human PARP preparation, radioactive or ELISA enzyme assay. An excerpt:
Two different methods are employed in determining the activity of the compounds of this invention in inhibiting the activity of PARP enzyme, designated as Method A and Method B respectively as set forth below.
Method A: Cloning and Expression, and Partial Purification of Recombinant Human PARP:
Full length human PARP (PARP1) is assembled from PCR fragments of a clone from a human brain cDNA library and two Incyte clones. The PARP gene (3046 bp) is sub-cloned into pFastBac-HTb vector to give PARP-pFastBac-HTb and the sequence of this clone is verified. PARP-pFastBac-HTb is expressed to obtain protein using the Bac-to-Bac expression protocol from Gibco-BRL. The recombinant virus generated is used to scale up the material for purification.
Cell pellets from cell broth of cells expressing PARP are treated with a cocktail of protease inhibitors and lysed by 4 freeze-thaw cycles. The material is suspended in 10 mM HEPES/0.1M NaCl/pH 7.2, stirred, and then centrifuged. A 40%-70% ammonium sulfate cut of protein pellet is obtained from the supernatant. The pellet is solubilized in 10 mM HEPES/pH 7.2 and centrifuged. The supernatant buffer is exchanged to 10 mM HEPES/pH 7.2/0.1M NaCl/25% glycerol by dialysis or with a desalting column. The enzyme preparation is stored at −20° C. until use.
The compounds of this invention are then tested with this enzyme preparation using either the radioactive enzyme assay or by the “ELISA” enzyme assay as set forth below.
Radioactivity Enzyme Assay:
Incorporation of radioactivity from labeled NAD into acid-precipitated protein is measured. The reaction mixture (volume 100 μL or 50 μL, in a test-tube or 96-well plate) contained 100 μg/mL calf thymus DNA (sonicated), 100 μg/mL histones, 100 mM Tris (pH 8.0), 1.0 mM DTT, 10 mM MgCl2, NAD (200 μM, 0.65 microcurie/mL), and varying amounts of enzyme. The reaction was incubated for 10 min at 37° C. or at room temperature for 60 min. The reaction was stopped and protein precipitated by addition of ice-cold trichloroacetic acid (TCA; 10% or 20% aqueous w/v). After brief storage in ice or at 4° C. for 2 hrs, the reaction mixture is filtered under vacuum through a glass fiber filter (2.5 cm disc, or 96-well filter plate). After washing with TCA and ethanol, the filter is dried and counted for tritium CPM after addition of scintillation fluid.
Incorporation of biotin-NAD into histone coated on plate is measured. A 96-well protein-binding EIA plate is coated with histone and blocked with bovine serum albumin. The reaction mixture (50 μL) contained DNA, buffer, enzyme, (test compound), and 250 μM of NAD and 5 μL of biotin-NAD (Trevigen). After reaction at room temperature the wells are washed and treated with Extravidin (Sigma). After incubation and washing color is developed with the peroxidase substrate TMB (Sigma). The TMB reaction is quenched with 2M sulfuric acid and the absorbance at 450 nm is read.
For orientation: An ELISA detects its analyte on a solid surface through an enzyme-linked reagent.

Structures can show the parent of a compound that is named as a salt.

T1 sequence (P09874 whole entry, the tested form may be a part): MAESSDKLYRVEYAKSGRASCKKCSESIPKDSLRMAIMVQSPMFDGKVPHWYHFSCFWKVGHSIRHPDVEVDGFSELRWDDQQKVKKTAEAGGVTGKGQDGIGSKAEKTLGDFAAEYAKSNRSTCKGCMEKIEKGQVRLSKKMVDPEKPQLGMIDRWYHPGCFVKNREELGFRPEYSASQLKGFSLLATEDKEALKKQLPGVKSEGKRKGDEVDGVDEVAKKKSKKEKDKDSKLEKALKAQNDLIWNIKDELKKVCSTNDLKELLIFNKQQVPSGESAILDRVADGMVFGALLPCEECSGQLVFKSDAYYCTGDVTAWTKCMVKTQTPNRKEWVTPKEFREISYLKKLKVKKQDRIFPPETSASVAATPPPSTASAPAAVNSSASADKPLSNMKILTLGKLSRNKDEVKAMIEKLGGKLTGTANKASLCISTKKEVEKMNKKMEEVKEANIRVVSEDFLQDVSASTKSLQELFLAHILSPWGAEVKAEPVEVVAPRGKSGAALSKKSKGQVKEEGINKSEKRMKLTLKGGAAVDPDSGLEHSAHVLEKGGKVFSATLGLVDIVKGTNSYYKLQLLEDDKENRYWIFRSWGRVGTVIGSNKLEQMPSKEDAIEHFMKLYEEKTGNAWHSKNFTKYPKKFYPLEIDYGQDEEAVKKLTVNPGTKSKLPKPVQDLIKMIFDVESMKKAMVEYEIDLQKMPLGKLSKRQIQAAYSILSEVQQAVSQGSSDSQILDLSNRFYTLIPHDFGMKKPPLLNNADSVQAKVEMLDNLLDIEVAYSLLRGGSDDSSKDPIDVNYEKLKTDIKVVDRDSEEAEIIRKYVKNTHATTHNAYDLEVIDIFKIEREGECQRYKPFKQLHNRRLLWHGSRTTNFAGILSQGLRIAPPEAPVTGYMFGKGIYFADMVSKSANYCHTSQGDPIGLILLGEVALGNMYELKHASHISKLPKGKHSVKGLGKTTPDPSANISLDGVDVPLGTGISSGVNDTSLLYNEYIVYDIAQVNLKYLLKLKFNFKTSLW

In general, IC50 refers to the concentration at which inhibition is half-maximal. As for “5-(5-Ethyl-2-methyl-6-oxo-1,6-dihydropyridin-3-yl)thiophene-2-sulfonic acid (2-1′-[5-(5-ethyl-2-methyl-6-oxo-1,6-dihydropyridin-3-yl)thiophene-2-sulfonyl]-1H-imidazol-4-yl}ethyl)amide hydrochloride [Example 40]”, the IC50 was found to be 0.13 µM.
As for `CCc1cc(-c2cccc(C#N)c2)c(C)[nH]c1=O` [Example 1, 3-(5-Ethyl-2-methyl-6-oxo-1,6-dihydropyridin-3-yl)benzonitrile], the concentration for half-maximal inhibition (IC50) came to 0.4 µM.
The value for `CCc1cc(-c2ccc(CN3CCOCC3)c(C#N)c2)c(C)[nH]c1=O` [Example 2, 5-(5-Ethyl-2-methyl-6-oxo-1,6-dihydropyridin-3-yl)-2-(morpholin-4-yl)methylbenzonitrile] was 4.5 µM.
Take `CCc1cc(-n2nccn2)c(C)[nH]c1=O` [Example 12, 3-Ethyl-6-methyl-5-(1,2,3-triazol-2-yl)-1H-pyridin-2-one]: the IC50 is 1.6 µM.
With `CCc1cc(-n2ccnn2)c(C)[nH]c1=O` [Example 13, 3-Ethyl-6-methyl-5-(1,2,3-triazol-1-yl)-1H-pyridin-2-one], the half-inhibitory concentration (IC50) worked out at 2.1 µM.
The value for `CCc1cc(-c2nnco2)c(C)[nH]c1=O` [Example 14, 3-Ethyl-6-methyl-5-(1,3,4-oxadiazol-2-yl)-1H-pyridin-2-one] was 0.56 µM.
Next, `CCc1cc(-c2nnc(C)o2)c(C)[nH]c1=O` [Example 15, 3-Ethyl-6-methyl-5-(5-methyl-1,3,4-oxadiazol-2-yl)-1H-pyridin-2-one]: 0.72 µM; `CCc1cc(-c2nc[nH]n2)c(C)[nH]c1=O` [Example 16, 3-Ethyl-6-methyl-5-(2H-1,2,4-triazol-3-yl)-1H-pyridin-2-one]: 0.35 µM; `CCc1cc(-c2ncnn2C)c(C)[nH]c1=O` [Example 17, 3-Ethyl-6-methyl-5-(2-methyl-2H-1,2,4-triazol-3-yl)-1H-pyridin-2-one]: 1.7 µM.
For `CCc1cc(-c2ncno2)c(C)[nH]c1=O` [Example 18, 3-Ethyl-6-methyl-5-(1,2,4-oxadiazol-5-yl)-1H-pyridin-2-one], the IC50 was found to be 0.65 µM.
The value for `CCc1cc(-c2nc(C)no2)c(C)[nH]c1=O` [Example 19, 3-Ethyl-6-methyl-5-(3-methyl-1,2,4-oxadiazol-5-yl)-1H-pyridin-2-one] was 0.23 µM; that for `CCc1cc(-c2nc(C)nn2C)c(C)[nH]c1=O` [Example 20, 5-(2,5-Dimethyl-2H-1,2,4-triazol-3-yl)-3-ethyl-6-methyl-1H-pyridin-2-one] was 1.1 µM.
Next, `CCc1cc(-c2n[nH]c(C)n2)c(C)[nH]c1=O` [Example 21, 3-Ethyl-6-methyl-5-(5-methyl-2H-1,2,4-triazol-3-yl)-1H-pyridin-2-one]: 0.17 µM; `CCc1cc(-c2ncon2)c(C)[nH]c1=O` [Example 23, 3-Ethyl-6-methyl-5-(1,2,4-oxadiazol-3-yl)-1H-pyridin-2-one]: 0.67 µM; `CCc1cc(-c2ccc(S(=O)(=O)N3CCN(c4ccccc4)CC3)s2)c(C)[nH]c1=O` [Example 24, 3-Ethyl-6-methyl-5-[5-(4-phenylpiperazine-1-sulfonyl)thiophen-2-yl]-1H-pyridin-2-one]: 0.63 µM.
The value for `CCc1cc(-c2ccc(S(=O)(=O)N(C)C)s2)c(C)[nH]c1=O` [Example 28, 5-(5-Ethyl-2-methyl-6-oxo-1,6-dihydropyridin-3-yl)thiophene-2-sulfonic acid dimethylamide] was 0.72 µM; that for `CCc1cc(-c2ccc(S(=O)(=O)N(C)Cc3cc(F)cc(F)c3)s2)c(C)[nH]c1=O` [Example 29, 5-(5-Ethyl-2-methyl-6-oxo-1,6-dihydropyridin-3-yl)thiophene-2-sulfonic acid (3,5-difluorobenzyl)methylamide] was 0.57 µM; that for `CCc1cc(-c2ccc(S(=O)(=O)NCCCN3CCC(O)C3)s2)c(C)[nH]c1=O` (stereo not drawn) [Example 30, 5-(5-Ethyl-2-methyl-6-oxo-1,6-dihydro-pyridin-3-yl)-thiophene-2-sulfonic acid [3-(3-hydroxy-pyrrolidin-1-yl)-propyl]-amide hydrochloride] was 10 µM.
For `CCc1cc(-c2ccc(S(=O)(=O)NCCNc3ccccc3)s2)c(C)[nH]c1=O` [Example 32, 5-(5-Ethyl-2-methyl-6-oxo-1,6-dihydropyridin-3-yl)thiophene-2-sulfonic acid 2-phenylaminoethylamide hydrochloride], the IC50 is 2.9 µM.
Consider `CCc1cc(-c2ccc(S(=O)(=O)NCCOC)s2)c(C)[nH]c1=O` [Example 33, 5-(5-Ethyl-2-methyl-6-oxo-1,6-dihydropyridin-3-yl)thiophene-2-sulfonic acid (2-methoxyethyl)amide], for which the IC50 amounted to 10.5 µM.
As to `CCc1cc(-c2ccc(S(=O)(=O)NCCCN(C)C)s2)c(C)[nH]c1=O` [Example 34, 5-(5-Ethyl-2-methyl-6-oxo-1,6-dihydropyridin-3-yl)thiophene-2-sulfonic acid (3-dimethylaminopropyl)amide hydrochloride], the IC50 worked out at 4.5 µM.
The value for `CCc1cc(-c2ccc(S(=O)(=O)NCc3ccc(C)o3)s2)c(C)[nH]c1=O` [Example 35, 5-(5-Ethyl-2-methyl-6-oxo-1,6-dihydropyridin-3-yl)thiophene-2-sulfonic acid (5-methylfuran-2-yl)methylamide] was 10.9 µM.
The value for `CCc1cc(-c2ccc(S(=O)(=O)NCCC3CCCN3C)s2)c(C)[nH]c1=O` (stereo not drawn) [Example 36, 5-(5-Ethyl-2-methyl-6-oxo-1,6-dihydropyridin-3-yl)thiophene-2-sulfonic Acid [2-(1-methylpyrrolidin-2-yl)ethyl]amide hydrochloride] was 3.7 µM.
In the case of `CCc1cc(-c2ccc(S(=O)(=O)N(C)CC(O)c3ccccc3)s2)c(C)[nH]c1=O` (stereo not drawn) [Example 37, 5-(5-Ethyl-2-methyl-6-oxo-1,6-dihydropyridin-3-yl)thiophene-2-sulfonic acid (2-hydroxy-2-phenylethyl)methylamide], the IC50 was determined as 2 µM.
Next, `CCc1cc(-c2ccc(S(=O)(=O)NCCN3CCOCC3)s2)c(C)[nH]c1=O` [Example 38, 5-(5-Ethyl-2-methyl-6-oxo-1,6-dihydropyridin-3-yl)thiophene-2-sulfonic acid (2-morpholin-4-yl)ethylamide hydrochloride]: 0.77 µM.
With `CCc1cc(-c2ccc(S(=O)(=O)NCC3CCN(C(=O)OC(C)(C)C)CC3)s2)c(C)[nH]c1=O` [Example 41-1, 5-(5-Ethyl-2-methyl-6-oxo-1,6-dihydropyridin-3-yl)thiophene-2-sulfonic acid (1-tert-butyloxycarbonylpiperidin-4-yl)methylamide], the IC50 came to 1.5 µM.
For `CCc1cc(-c2ccc(S(=O)(=O)NCC3CCNCC3)s2)c(C)[nH]c1=O` [Example 41-2, 5-[5-Ethyl-2-methyl-6-oxo-(1,6-dihydropyridin-3-yl)]thiophene-2-sulfonic acid (piperidin-4-yl)methylamide hydrochloride], the 50% inhibitory concentration (IC50) was 0.52 µM.
As for `CCc1cc(-c2ccc(S(=O)(=O)N3CCN(c4ccncc4)CC3)o2)c(C)[nH]c1=O` [Example 45, 3-Ethyl-6-methyl-5-{5-[(4-pyridin-4-yl)piperazine-1-sulfonyl]furan-2-yl}-1H-pyridin-2-one hydrochloride], the 50% inhibitory concentration (IC50) stood at 0.22 µM.
The value for `CCc1cc(-c2ccc(S(=O)(=O)NC3CCN(Cc4ccccc4)CC3)o2)c(C)[nH]c1=O` [Example 46, 5-(5-Ethyl-2-methyl-6-oxo-1,6-dihydropyridin-3-yl)furan-2-sulfonic acid (1-benzylpiperidin-4-yl)amide hydrochloride] was 0.46 µM; that for `CCc1cc(-c2ccc(S(=O)(=O)NCCN3CCOCC3)o2)c(C)[nH]c1=O` [Example 47, 5-(5-Ethyl-2-methyl-6-oxo-1,6-dihydropyridin-3-yl)furan-2-sulfonic acid (2-morpholin-4-yl)ethylamide hydrochloride] was 0.89 µM.
